We go through 1 compound from patent US7648985B2, “Oxabispidine compounds and their use in the treatment of cardiac arrhythmias” (AstraZeneca AB, priority 2004, dated 2010).

The target in this assay is T1, HERG channel (Homo sapiens, UniProt Q12809).
T1 construct: expressed in transfected cells
The assay is described as follows: Test B: R^+-Efflux Assay for Detection of HERG Channel Blockers. Type of assay: cell-based. The following applies: depolarisation-induced Rb+ efflux from Chinese hamster ovary cells stably expressing the HERG-channel; read-out: pIC50 for HERG channel blockade (converted).

T1 sequence (Q12809 whole entry): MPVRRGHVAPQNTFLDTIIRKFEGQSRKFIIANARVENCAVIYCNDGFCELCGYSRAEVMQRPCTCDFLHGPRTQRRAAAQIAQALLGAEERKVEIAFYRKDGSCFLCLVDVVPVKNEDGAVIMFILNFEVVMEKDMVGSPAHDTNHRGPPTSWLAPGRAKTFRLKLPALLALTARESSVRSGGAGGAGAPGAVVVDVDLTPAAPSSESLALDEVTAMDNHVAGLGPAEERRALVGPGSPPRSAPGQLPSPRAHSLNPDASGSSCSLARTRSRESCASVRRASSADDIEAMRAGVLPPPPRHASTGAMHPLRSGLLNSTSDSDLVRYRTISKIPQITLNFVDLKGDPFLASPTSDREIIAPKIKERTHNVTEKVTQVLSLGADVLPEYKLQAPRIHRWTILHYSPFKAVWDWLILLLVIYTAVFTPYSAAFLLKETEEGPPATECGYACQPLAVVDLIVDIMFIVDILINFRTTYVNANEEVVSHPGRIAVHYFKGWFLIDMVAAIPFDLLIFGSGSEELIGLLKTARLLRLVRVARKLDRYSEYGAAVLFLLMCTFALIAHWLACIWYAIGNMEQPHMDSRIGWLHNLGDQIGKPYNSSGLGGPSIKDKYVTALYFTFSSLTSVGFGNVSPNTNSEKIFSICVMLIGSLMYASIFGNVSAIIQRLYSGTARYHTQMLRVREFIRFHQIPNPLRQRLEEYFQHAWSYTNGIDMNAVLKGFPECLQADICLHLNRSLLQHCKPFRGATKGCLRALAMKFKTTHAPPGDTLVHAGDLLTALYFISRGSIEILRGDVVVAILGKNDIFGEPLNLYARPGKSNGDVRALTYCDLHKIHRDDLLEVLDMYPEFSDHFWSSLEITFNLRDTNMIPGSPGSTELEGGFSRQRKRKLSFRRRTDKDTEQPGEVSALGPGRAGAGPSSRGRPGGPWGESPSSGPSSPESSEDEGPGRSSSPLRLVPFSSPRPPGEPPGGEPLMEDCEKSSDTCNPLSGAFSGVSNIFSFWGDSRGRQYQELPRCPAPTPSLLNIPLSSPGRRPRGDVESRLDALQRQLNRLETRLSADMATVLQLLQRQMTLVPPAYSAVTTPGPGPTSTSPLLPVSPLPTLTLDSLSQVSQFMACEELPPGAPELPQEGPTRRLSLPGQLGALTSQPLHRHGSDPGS
Protocol: The IC50 value for HERG channel blockade was determined using a high throughput functional assay based on depolarisation-induced R^+-efflux from Chinese hamster ovary cells stably expressing the HERG-channel.
Cells were grown in Ham F12 (Life Technologies 31765-027) supplemented with 10% FBS and 0.6 mg/mL hygromycin B and were routinely passaged twice-weekly. For experimental studies, cells were plated at a density of 15,000 cells/well in Falcon, 384-well tissue culture-treated black-walled clear-bottomed plates and were thereafter incubated overnight at 37° C. in a cell culture incubator.
Following incubating overnight, cell plates were washed and a Rb^+-Load buffer (a physiological buffer containing Rb^+) was added. Cell plates were then incubated for 3 hours and were thereafter washed. Following this wash, the test compounds were added. The cell plates were then incubated for another 10 minutes and, following this incubation period, external K^+ concentration was increased in order to depolarize the cells and activate HERG channels. After a ten minute exposure period to the increased K^+ concentration, supernatants were transferred to new microplates for subsequent determination of Rb^+ content, using Atomic Absorption Spectrometry analysis. […]
Compound activity was expressed as: […]

On to `Cc1noc(C)c1S(=O)(=O)NCCN1CC2CN(CCOc3ccc(C#N)cc3)CC(C1)O2` [Example 9, N-(2-{7-[2-(4-cyanophenoxy)ethyl]-9-oxa-3,7-diazabicyclo[3.3.1]non-3-yl}ethyl)-3,5-dimethylisoxazole-4-sulfonamide], for which the IC50 was 3.24 µM.
